Measured values: ChEMBL document CHEMBL1134980, “Structure-activity relationships for a series of thiobenzamide influenza fusion inhibitors derived from 1,3,3-trimethyl-5-hydroxy-cyclohexylmethylamine” (Bioorg Med Chem Lett, 2002)
Values after ≈ are worked out from the molar mass of the structure shown.

Experiments:
Influenza A virus = test: Anti-influenza activity on A/WSN/33 (H1N1 subtype) strain of influenza virus infected on MDCK cells in cell protection assay.; type: functional, organism-based
MDCK = test: The concentration causing a 50% reduction in cell viability in the absence of influenza infection on MDCK cells in cell protection assay.; type: functional; conditions: Canis lupus familiaris

For `CC1(C)C[C@H](O)C[C@](C)(C/N=C(\S)c2cccc(Cl)c2)C1`, the EC50 (Influenza A virus) was “Not Active”, the IC50 (Influenza A virus) was 2.5 µg/mL (≈ 7.67 µM) and the CC50 (MDCK) was 8.5 µg/mL (≈ 26.1 µM).

`CC1(C)C[C@@H](O)C[C@](C)(CNC(=O)c2cc(Cl)ccc2O)C1` was tested, and the EC50 (Influenza A virus) was 0.2 µg/mL (≈ 0.614 µM), the IC50 (Influenza A virus) was 0.15 µg/mL (≈ 0.46 µM) and the CC50 (MDCK) was over 100 µg/mL.

`CC1(C)C[C@H](O)C[C@](C)(CNC(=O)c2ccccc2O)C1` gave a CC50 (MDCK) of 70 µg/mL (≈ 240 µM).

`CC1(C)C[C@H](O)C[C@](C)(C/N=C(\S)c2cccc(F)c2)C1` was tested, and the EC50 (Influenza A virus) was “Not Active”, the IC50 (Influenza A virus) was 5 µg/mL (≈ 16.2 µM) and the CC50 (MDCK) was 20 µg/mL (≈ 64.6 µM).

In the case of `Cc1cc(C)cc(/C(S)=N/C[C@@]2(C)C[C@H](O)CC(C)(C)C2)c1`, the EC50 (Influenza A virus) was 0.03 µg/mL (≈ 0.0939 µM), the IC50 (Influenza A virus) was 0.52 µg/mL (≈ 1.63 µM) and the CC50 (MDCK) was 18 µg/mL (≈ 56.3 µM).

In the case of `Cc1ccc(C)c(/C(S)=N/C[C@@]2(C)C[C@H](O)CC(C)(C)C2)c1`, the EC50 (Influenza A virus) was 0.023 µg/mL (≈ 0.072 µM), the IC50 (Influenza A virus) was 0.08 µg/mL (≈ 0.25 µM) and the CC50 (MDCK) was 45 µg/mL (≈ 141 µM).

Compound `COc1ccccc1/C(S)=N/C[C@@]1(C)C[C@H](O)CC(C)(C)C1` has an EC50 (Influenza A virus) of 1 µg/mL (≈ 3.11 µM), an IC50 (Influenza A virus) of 0.5 µg/mL (≈ 1.56 µM) and a CC50 (MDCK) of 43 µg/mL (≈ 134 µM).

With `Cc1ccccc1/C(S)=N/C[C@@]1(C)C[C@@H](O)CC(C)(C)C1` the EC50 (Influenza A virus) was “Not Active”, the IC50 (Influenza A virus) was 2.4 µg/mL (≈ 7.86 µM) and the CC50 (MDCK) was 2 µg/mL (≈ 6.55 µM).

In the case of `Cc1cc(C)cc(/C(S)=N/C[C@@]2(C)C[C@@H](O)CC(C)(C)C2)c1`, the EC50 (Influenza A virus) was “Not Active”, the IC50 (Influenza A virus) was 0.5 µg/mL (≈ 1.56 µM) and the CC50 (MDCK) was 40 µg/mL (≈ 125 µM).

Work on `Cc1ccc(O)c(/C(S)=N/C[C@@]2(C)C[C@@H](O)CC(C)(C)C2)c1` yielded an EC50 (Influenza A virus) of 0.4 µg/mL (≈ 1.24 µM), an IC50 (Influenza A virus) of 0.16 µg/mL (≈ 0.498 µM) and a CC50 (MDCK) of 15 µg/mL (≈ 46.7 µM).

For `CC1(C)C[C@H](O)C[C@](C)(CNC(=O)c2cc(Cl)ccc2O)C1`, the EC50 (Influenza A virus) was 0.06 µg/mL (≈ 0.184 µM), the IC50 (Influenza A virus) was 0.025 µg/mL (≈ 0.0767 µM) and the CC50 (MDCK) was 80 µg/mL (≈ 246 µM).

With `Cc1ccc(/C(S)=N/C[C@@]2(C)C[C@H](O)CC(C)(C)C2)cc1` the EC50 (Influenza A virus) was “Not Active”, the IC50 (Influenza A virus) was 7 µg/mL (≈ 22.9 µM) and the CC50 (MDCK) was 40 µg/mL (≈ 131 µM).

For `COC(=O)c1cccc(/C(S)=N/C[C@@]2(C)C[C@H](O)CC(C)(C)C2)c1`, the EC50 (Influenza A virus) was “Not Active”, the IC50 (Influenza A virus) was “Not Active” and the CC50 (MDCK) was 50 µg/mL (≈ 143 µM).

`CC1(C)C[C@@H](O)C[C@](C)(C/N=C(\S)c2cccc(F)c2)C1` was tested, and the EC50 (Influenza A virus) was 0.038 µg/mL (≈ 0.123 µM), the IC50 (Influenza A virus) was 0.19 µg/mL (≈ 0.614 µM) and the CC50 (MDCK) was 70 µg/mL (≈ 226 µM).

With `Cc1ccccc1/C(S)=N/C[C@@]1(C)C[C@H](O)CC(C)(C)C1` the EC50 (Influenza A virus) was 0.065 µg/mL (≈ 0.213 µM), the IC50 (Influenza A virus) was 0.14 µg/mL (≈ 0.458 µM) and the CC50 (MDCK) was 70 µg/mL (≈ 229 µM).

`CC1(C)C[C@H](O)C[C@](C)(C/N=C(\S)c2ccccc2O)C1` showed an EC50 (Influenza A virus) of 4.5 µg/mL (≈ 14.6 µM), an IC50 (Influenza A virus) of 2.4 µg/mL (≈ 7.81 µM) and a CC50 (MDCK) of 40 µg/mL (≈ 130 µM).

`Cc1cccc(/C(S)=N/C[C@@]2(C)C[C@H](O)CC(C)(C)C2)c1` gave an EC50 (Influenza A virus) of 0.015 µg/mL (≈ 0.0491 µM), an IC50 (Influenza A virus) of 0.03 µg/mL (≈ 0.0982 µM) and a CC50 (MDCK) of 35 µg/mL (≈ 115 µM).

For `COc1ccccc1/C(S)=N/C[C@@]1(C)C[C@@H](O)CC(C)(C)C1`, the EC50 (Influenza A virus) was “Not Active”, the IC50 (Influenza A virus) was “Not Active” and the CC50 (MDCK) was 45 µg/mL (≈ 140 µM).

Compound `CC1(C)C[C@@H](O)C[C@](C)(C/N=C(\S)c2ccccc2O)C1` has an EC50 (Influenza A virus) of 2 µg/mL (≈ 6.5 µM), an IC50 (Influenza A virus) of 2.4 µg/mL (≈ 7.81 µM) and a CC50 (MDCK) of 40 µg/mL (≈ 130 µM).

In the case of `CC1(C)C[C@H](O)C[C@](C)(C/N=C(\S)c2cccc(C(F)(F)F)c2)C1`, the EC50 (Influenza A virus) was “Not Active”, the IC50 (Influenza A virus) was 23 µg/mL (≈ 64 µM) and the CC50 (MDCK) was 5 µg/mL (≈ 13.9 µM).

`Cc1ccc(/C(S)=N/C[C@@]2(C)C[C@@H](O)CC(C)(C)C2)c(C)c1` was tested, and the EC50 (Influenza A virus) was “Not Active”, the IC50 (Influenza A virus) was “Not Active” and the CC50 (MDCK) was 30 µg/mL (≈ 93.9 µM).

For `CC1(C)C[C@@H](O)C[C@](C)(C/N=C(\S)c2cccc([N+](=O)[O-])c2)C1`, the EC50 (Influenza A virus) was “Not Active”, the IC50 (Influenza A virus) was 1.8 µg/mL (≈ 5.35 µM) and the CC50 (MDCK) was 15 µg/mL (≈ 44.6 µM).

For `CC1(C)C[C@H](O)C[C@](C)(CNC(=O)Nc2ccccc2Cl)C1` (relative stereo), the IC50 (Influenza A virus) was 0.1 µg/mL (≈ 0.308 µM).

With `Cc1ccc(O)c(C(=O)NC[C@@]2(C)C[C@@H](O)CC(C)(C)C2)c1` the EC50 (Influenza A virus) was 0.03 µg/mL (≈ 0.0982 µM), the IC50 (Influenza A virus) was 0.039 µg/mL (≈ 0.128 µM) and the CC50 (MDCK) was 50 µg/mL (≈ 164 µM).

`Cc1ccc(/C(S)=N/C[C@@]2(C)C[C@H](O)CC(C)(C)C2)c(C)c1` gave an EC50 (Influenza A virus) of 0.15 µg/mL (≈ 0.469 µM), an IC50 (Influenza A virus) of 0.45 µg/mL (≈ 1.41 µM) and a CC50 (MDCK) of 35 µg/mL (≈ 110 µM).

`Cc1ccc(O)c(C(=O)NC[C@@]2(C)C[C@H](O)CC(C)(C)C2)c1` was tested, and the EC50 (Influenza A virus) was 0.15 µg/mL (≈ 0.491 µM), the IC50 (Influenza A virus) was 0.015 µg/mL (≈ 0.0491 µM) and the CC50 (MDCK) was 70 µg/mL (≈ 229 µM).

`CC1(C)C[C@@H](O)C[C@](C)(C/N=C(\S)c2cccc(C#N)c2)C1` was tested, and the EC50 (Influenza A virus) was 2.5 µg/mL (≈ 7.9 µM), the IC50 (Influenza A virus) was “Not Active” and the CC50 (MDCK) was 22 µg/mL (≈ 69.5 µM).

In the case of `CC1(C)C[C@@H](O)C[C@](C)(CNC(=O)Nc2ccccc2Cl)C1`, the IC50 (Influenza A virus) was 0.1 µg/mL (≈ 0.308 µM).

In the case of `Cc1ccc(C)c(/C(S)=N/C[C@@]2(C)C[C@@H](O)CC(C)(C)C2)c1`, the EC50 (Influenza A virus) was “Not Active”, the IC50 (Influenza A virus) was 1.5 µg/mL (≈ 4.69 µM) and the CC50 (MDCK) was 30 µg/mL (≈ 93.9 µM).

In the case of `CC1(C)C[C@H](O)C[C@](C)(C/N=C(\S)c2ccccc2)C1`, the EC50 (Influenza A virus) was “Not Active”, the IC50 (Influenza A virus) was 3.5 µg/mL (≈ 12 µM) and the CC50 (MDCK) was 50 µg/mL (≈ 172 µM).

`CC1(C)C[C@@H](O)C[C@](C)(CNC(=O)c2ccccc2O)C1` gave a CC50 (MDCK) of 90 µg/mL (≈ 309 µM).

With `CC1(C)C[C@@H](O)C[C@](C)(C/N=C(\S)c2cc(Cl)ccc2O)C1` the EC50 (Influenza A virus) was 1.8 µg/mL (≈ 5.26 µM), the IC50 (Influenza A virus) was 1 µg/mL (≈ 2.92 µM) and the CC50 (MDCK) was 4 µg/mL (≈ 11.7 µM).

Work on `CC1(C)C[C@H](O)C[C@](C)(C/N=C(\S)c2cc(Cl)ccc2O)C1` yielded an EC50 (Influenza A virus) of 0.9 µg/mL (≈ 2.63 µM), an IC50 (Influenza A virus) of 2.8 µg/mL (≈ 8.19 µM) and a CC50 (MDCK) of 5.5 µg/mL (≈ 16.1 µM).

For `Cc1cccc(/C(S)=N/C[C@@]2(C)C[C@@H](O)CC(C)(C)C2)c1`, the EC50 (Influenza A virus) was “Not Active”, the IC50 (Influenza A virus) was 7.5 µg/mL (≈ 24.6 µM) and the CC50 (MDCK) was 20 µg/mL (≈ 65.5 µM).

In the case of `CC1(C)C[C@@H](O)C[C@](C)(C/N=C(\S)c2cccc(Cl)c2)C1`, the EC50 (Influenza A virus) was 0.02 µg/mL (≈ 0.0614 µM), the IC50 (Influenza A virus) was 0.047 µg/mL (≈ 0.144 µM) and the CC50 (MDCK) was 20 µg/mL (≈ 61.4 µM).

For `CC1(C)C[C@@H](O)C[C@](C)(C/N=C(\S)c2cccc(C(F)(F)F)c2)C1`, the EC50 (Influenza A virus) was 0.09 µg/mL (≈ 0.25 µM), the IC50 (Influenza A virus) was 0.3 µg/mL (≈ 0.835 µM) and the CC50 (MDCK) was 15 µg/mL (≈ 41.7 µM).

For `Cc1ccc(/C(S)=N/C[C@@]2(C)C[C@@H](O)CC(C)(C)C2)cc1`, the EC50 (Influenza A virus) was “Not Active”, the IC50 (Influenza A virus) was “Not Active” and the CC50 (MDCK) was 25 µg/mL (≈ 81.8 µM).

For `CC1(C)C[C@@H](O)C[C@](C)(C/N=C(\S)c2ccccc2)C1`, the EC50 (Influenza A virus) was 0.05 µg/mL (≈ 0.172 µM), the IC50 (Influenza A virus) was 0.15 µg/mL (≈ 0.515 µM) and the CC50 (MDCK) was 10 µg/mL (≈ 34.3 µM).

In the case of `Cc1ccc(O)c(/C(S)=N/C[C@@]2(C)C[C@H](O)CC(C)(C)C2)c1`, the EC50 (Influenza A virus) was 0.5 µg/mL (≈ 1.56 µM), the IC50 (Influenza A virus) was 0.33 µg/mL (≈ 1.03 µM) and the CC50 (MDCK) was 20 µg/mL (≈ 62.2 µM).
